Assay results published in paper PMC10380488, “Cx43 Hemichannel and Panx1 Channel Modulation by Gap19 and ^10Panx1 Peptides” (International Journal of Molecular Sciences, 2023).
Where “and” joins values, the source holds several entries; their conditions need not be identical. Equal values may be shown once. Entries after “also recorded” stand apart in the source; their conditions may differ.

Assays:
Panx1 channels [1] = target: T1, Panx1 channels (Rattus norvegicus, UniProt P60570); experiment: Whole-cell patch-clamp, unitary Panx1 channel current activity in C6-Panx1 cells; type: cell-based; details: for nominal open probability (NPo) of Panx1 channels: C6-Panx1, step −30 to +70 mV, 30 s, mean ± SEM, control 0.37 ± 0.02
T1 construct: expressed in transfected cells; host or cells: C6 glioma cells (C6-Panx1), gift of Dr Christian C; Naus
Description: (§1) We used HeLa cells stably transfected with Cx43 (HeLa-Cx43 [56]); endogenous expression of Panx1 is very low or absent in non-transfected HeLa cells. C6 glioma cells stably transfected with Panx1 (C6-Panx1, C-terminally myc-tagged; kind gift of Dr Christian C. Naus, University of British Columbia, Canada) were used for the Panx1 channel studies; Cx43 expression is low or undetectable [61] in these cells. HeLa cells were maintained in Dulbecco’s modified Eagle’s medium (DMEM; Invitrogen, Gent, Belgium), and C6 cells were grown in DMEM:Ham’s F12 (1:1—Invitrogen, Merelbeke, Belgium), all supplemented with 10% fetal bovine serum (FBS), 2 mM glutamine, 10 U/mL penicillin, 10 µg/mL streptomycin and 0.25 µg/mL fungizone. Stable exogenous expressions were maintained by supplementation of 1 and 3 µg/mL puromycin (Sigma-Aldrich, Bornem, Belgium) for HeLa-Cx43 and C6-Panx1 cells, respectively. Stable transfectants were subcultured into puromycin-free medium 2 days prior to experimentation. Cells were maintained at 37 °C and 10% (HeLa-Cx43) or 5% (C6-Panx1) CO2.
(§2) All experimental data were obtained with the patch-clamp technique in whole-cell recording mode on HeLa-Cx43 and C6-Panx1 cells. Extracellular solution was composed of the following (in mM): 150 NaCl, 4 CsCl, 2 CaCl2, 2 MgCl2, 2 pyruvic acid, 5 glucose and 5 HEPES at pH of 7.4, while the pipette solution consisted of the following (in mM): 125 CsCl, 10 sodium aspartate (NaAsp), 0.26 CaCl2, 1 MgCl2, 2 EGTA, 10 tetraethylammonium (TEA)-Cl and 5 HEPES at pH 7.2. The free Ca^2+ concentration of the pipette solution was estimated to be ~50 nM as calculated with WEBMAX (https://somapp.ucdmc.ucdavis.edu/pharmacology/bers/maxchelator/webmaxc/webmaxcS.htm; accessed on 20 September 2020). Whole-cell recording was performed under control conditions and in the presence of Gap19 or ^10Panx1. Gap19 was included in the pipette solution, while ^10Panx1 was added externally and preincubated for 45 min. Recordings were commenced 2 min after establishment of the whole-cell configuration. Currents were recorded with an EPC 7 PLUS patch-clamp amplifier (HEKA Elektronik, Germany). Unitary current activities were elicited by stepping the cells from a holding potential of −30 mV to a membrane potential (Vm) of +70 mV for 30 s. Data were digitized at 4 KHz using an NI USB-6221 data acquisition device (National Instruments, Austin, TX, USA) and WinWCP acquisition software designed by Dr. J. Dempster (University of Strathclyde, United Kingdom). Measured currents were filtered by a 7-pole Bessel low-pass filter at 1 KHz cut-off frequency. Transition analysis was performed as reported in [16]. Unitary channel conductances were determined from transition histograms as well as from all-point histograms and were obtained by fitting their frequencies to Gaussian distributions. Channel opening activity is expressed as nominal open probability NPo, denoting the number of active channels in the patch multiplied by the open probability.
(§3) Data were processed using Clampfit version 11.2 (Molecular Devices, San Jose, USA) and HemiGUI software as previously described. Results are expressed as mean ± SEM (unless otherwise stated), with n giving the number of traces, N the number of cells, and N the number of experiments on different cell culture dishes. Multiple groups were compared by one-way analysis of variance with post-hoc Dunnett’s or Bonferroni multiple comparison tests, making use of GraphPad PRISM 5.0 (GraphPad Software, Inc., La Jolla, CA). Results were considered statistically significant when p ≤ 0.05 (*; # for p ≤ 0.05, **; ## for p ≤ 0.01, ***; ### for p ≤ 0.001, and ****; #### for p ≤ 0.0001).

Cx43 HCs [2] = experiment: Whole-cell patch-clamp, unitary Cx43 hemichannel current activity in HeLa-Cx43 cells; type: cell-based; details: for nominal open probability (NPo) of Cx43 HCs: HeLa-Cx43, step −30 to +70 mV, 30 s, mean ± SEM, control 0.48 ± 0.02; for conductance γ of Cx43 HC, subconductance state, transition histogram / unitary conductance γ of Cx43 HC, fully open state, transition histogram: Figure 3B, mean ± SD
Description: as §1, §2, §3

Cx43 or Panx1 channels = details: 100 μM extracellular; HeLa cells expressing Cx43 or Panx1; cited from earlier work
Description: (§4) Connexins and pannexins are two ubiquitous but distinct protein families forming membrane hemichannels (HCs) and channels in the plasma membrane, respectively. They facilitate the exchange of ions and small molecules (MW ≤ 1.5 kDa) between the intracellular and the extracellular compartment upon opening. Among these respective families, connexin-43 (Cx43) and pannexin-1 (Panx1) are the most abundant isotypes in the human body expressed in a wide array of tissues. Panx1 and Cx43 have several common properties, including the following: (i) an analogous tetra-spanning transmembrane topology with ...

Panx1 channels [3] = target: T1, Panx1 channels; details: 200 µM extracellular; high extracellular K^+; cited from earlier work
Description: as §4

Cx43 C-terminal tail = details: cited from earlier work
Cx43 HCs [4] = details: cited from earlier work
Description: However, this concentration decreases the NPo of Cx43 HCs by ~83% (Figure 2B; for traces, see Figure 3).

[5] = 100 μM Gap19 intracellular, N = 12, n = 98
[6] = 200 μM Gap19 intracellular, N = 15, n = 122

T1 sequence (P60570 whole entry): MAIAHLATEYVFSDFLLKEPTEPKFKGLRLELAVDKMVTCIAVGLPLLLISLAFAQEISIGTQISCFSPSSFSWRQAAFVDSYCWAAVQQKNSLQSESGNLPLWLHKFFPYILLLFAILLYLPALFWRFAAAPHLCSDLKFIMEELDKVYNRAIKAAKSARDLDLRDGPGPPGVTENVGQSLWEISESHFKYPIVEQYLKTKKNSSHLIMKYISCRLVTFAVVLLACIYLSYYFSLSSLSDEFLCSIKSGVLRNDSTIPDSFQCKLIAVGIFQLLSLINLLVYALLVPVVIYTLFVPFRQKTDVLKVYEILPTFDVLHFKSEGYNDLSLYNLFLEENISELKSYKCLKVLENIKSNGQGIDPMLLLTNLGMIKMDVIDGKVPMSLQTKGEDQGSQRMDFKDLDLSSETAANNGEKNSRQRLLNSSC

KQIEIKKFK [Gap19]
effect on Panx1 channels (Panx1 channels [1]; 100 μM Gap19 intracellular): without affecting the Panx1 channels
nominal open probability (NPo) of Panx1 channels (Panx1 channels [1]; 100 μM Gap19 intracellular (pipette), N = 12 cells, n = 76 traces): 0.34 ± 0.03
nominal open probability (NPo) of Panx1 channels (Panx1 channels [1]; 200 μM Gap19 intracellular (pipette), N = 9 cells, n = 70 traces): 0.30 ± 0.03
effect on open-state events of Panx1, all-point histograms (Panx1 channels [1]; 200 µM Gap19 intracellular, Figure 1C): some effect; also recorded: to some extent
nominal open probability (NPo) of Panx1 channels (Panx1 channels [1]; 500 μM Gap19 intracellular (pipette), N = 10 cells, n = 87 traces): 0.28 ± 0.03
reduction of NPo of Panx1 channels (Panx1 channels [1]; 500 μM Gap19 intracellular, vs control, significant): ~ 25% and 26%
effect on Panx1 channel activity (NPo) (Panx1 channels [1]; 100 and 200 μM Gap19 intracellular (below 500 μM)): did not significantly affect the NPo of the Panx1 channel; also recorded: non-significant effects on Panx1 channel activity; also recorded: without affecting Panx1 channel function; also recorded: No Effect below 500 µM
fast-flickering closures of Panx1 channel (Panx1 channels [1]; traces of Panx1 channel activity (Supplementary Figure S2)): not observed
reduction of NPo of Cx43 HCs (Cx43 HCs [2]; 100 μM Gap19 intracellular): significantly reduces the NPo of Cx43 HCs; also recorded: more than halved the NPo
nominal open probability (NPo) of Cx43 HCs (Cx43 HCs [2]; 100 μM Gap19 intracellular (pipette), N = 12 cells, n = 98 traces): 0.21 ± 0.02
nominal open probability (NPo) of Cx43 HCs (Cx43 HCs [2]; 200 μM Gap19 intracellular (pipette), N = 15 cells, n = 122 traces): 0.18 ± 0.02
nominal open probability (NPo) of Cx43 HCs (Cx43 HCs [2]; 500 μM Gap19 intracellular (pipette), N = 12 cells, n = 88 traces): 0.08 ± 0.01
reduction of NPo of Cx43 HCs (Cx43 HCs [2]; 500 μM Gap19 intracellular, vs control): 84%
conductance γ of Cx43 HC, subconductance state, transition histogram (Cx43 HCs [2]; [5]): 86 ± 31 pS
unitary conductance γ of Cx43 HC, fully open state, transition histogram (Cx43 HCs [2]; [5]): 201 ± 50 pS
conductance γ of Cx43 HC, subconductance state, transition histogram (Cx43 HCs [2]; [6]): 87 ± 27 pS
unitary conductance γ of Cx43 HC, fully open state, transition histogram (Cx43 HCs [2]; [6]): 201 ± 45 pS
conductance γ of Cx43 HC, all-point histogram (Cx43 HCs [2]; Figure 3C, 100 μM Gap19 intracellular): 204 ± 46 pS
inhibition of Cx43 HC opening activity (in words) (Cx43 HCs [2]; Gap19 intracellular / ^10Panx1 extracellular, 100-500 μM (Gap19 100–200 μM)): Inhibited; also recorded: concentration-dependent and significant inhibition; also recorded: concentration-dependently inhibits Cx43 HCs; also recorded: significantly inhibits Cx43 HCs
effect on Cx43 HC gating (fully open state vs subconductance state) (Cx43 HCs [2]; Gap19 intracellular / ^10Panx1 extracellular, from 100 µM): reduced the frequency of transitions to the fully open state and increased the propensity of subconductance transitions starting from 100 µM; also recorded: increased gating to the subconductance state; also recorded: acts as a gating modifier, reducing transitions to the fully open state (~210 pS) while increasing the number of transitions to the subconductance state (~80 pS
selectivity for Cx43 or Panx1 channels (Cx43 or Panx1 channels): good selectivity
effect on ATP release from Panx1-overexpressing cells (Panx1 channels [3]): does not affect ATP release
interaction with the Cx43 C-terminal tail (Cx43 C-terminal tail): interacts with the Cx43 C-terminal tail
effect on Cx43 HC gating (Cx43 HCs [4]): gating modifier
